Patent US20120302530A1, “23-HYDROXY-BETULINIC ACID DERIVATIVES, PREPARATION METHODS AND USES THEREOF” (priority 2009, published 2012)

Experiments:
[1] = system: normal mice fibroblast (MEF); experiment: MTT cytotoxicity, normal cell strain; assay type: cell-based, mouse; settings: for EC50: Normal Mouse Fibroblast, 72 hours, MTT; for sensitivity of normal cells to the compounds: concentration up to 30 μm, cells can still grow well
[2] = system: MDA-MB-435; experiment: MTT cytotoxicity, human tumor cell strain; assay type: cell-based; settings: MDA-MB-435, Mammary Gland, 72 hours
Excerpt: (§1) We use human tumor cell lines to conduct cytotoxicity analysis. Thirty-one (31) kinds of human tumor cell strains are cultivated in the normal culture medium containing various compounds of zhangnan-5, zhangnan-7 and zhangnan-8. The human tumor lines are bought from ATCC and NCI, and is cultivated with DMEM culture solution containing 10% FBS in 370C couveuse containing 5% CO2. The merged cells are digested by trypsinase, and are counted after washed by the culture solution. 3000˜6000 cells are added into each hole of the 96-hole culture plate, and are hatched for 16 hours or 24 hours. Then, compounds zhangnan-5, zhangnan-7 and zhangnan-8 with different concentrations are added into the holes. Upon further cultivated for another 72 hours, MTT tests are conducted to cells in group treated with drugs and the control group cells, to determine the survival condition of the cells.

[3] = system: SK-MEL-5; experiment: MTT cytotoxicity, human tumor cell strain; assay type: cell-based; settings: SK-MEL-5, Skin (melanoma), 72 hours
Excerpt: as §1

[4] = system: ACHN; experiment: MTT cytotoxicity, human tumor cell strain; assay type: cell-based; settings: Kidney, 72 hours
Excerpt: as §1

[5] = system: SKOV3; experiment: MTT cytotoxicity, human tumor cell strain; assay type: cell-based; settings: SK-OV-3, SKOV3, Ovary, 72 hours
Excerpt: as §1

[6] = system: Mid PaCa-2; experiment: MTT cytotoxicity, human tumor cell strain; assay type: cell-based; settings: Mid PaCa-2, Pancreatic Gland, 72 hours
Excerpt: as §1

[7] = system: SN12C; experiment: MTT cytotoxicity, human tumor cell strain; assay type: cell-based; settings: Kidney, 72 hours
Excerpt: as §1

[8] = system: LoVo; experiment: MTT cytotoxicity, human tumor cell strain; assay type: cell-based; settings: Colon, 72 hours
Excerpt: as §1

[9] = system: CCL-247; experiment: MTT cytotoxicity, human tumor cell strain; assay type: cell-based; settings: CCL-247, Colo, 72 hours
Excerpt: as §1

[10] = system: MDA-MB-231; experiment: MTT cytotoxicity, human tumor cell strain; assay type: cell-based; settings: MDA-MB-231, Mammary Gland, 72 hours
Excerpt: as §1

[11] = system: EC109; experiment: MTT cytotoxicity, human tumor cell strain; assay type: cell-based; settings: ECa-109, EC109, Esophagus, 72 hours
Excerpt: as §1

[12] = system: AU-565; experiment: MTT cytotoxicity, human tumor cell strain; assay type: cell-based; settings: AU565, AU-565, Mammary Gland, 72 hours
Excerpt: as §1

[13] = system: A549; experiment: MTT cytotoxicity, human tumor cell strain; assay type: cell-based; settings: A549, Lung, 72 hours
Excerpt: as §1

[14] = system: Caki-1; experiment: MTT cytotoxicity, human tumor cell strain; assay type: cell-based; settings: Caki-1, Kidney, 72 hours
Excerpt: as §1

[15] = system: LnCAP; experiment: MTT cytotoxicity, human tumor cell strain; assay type: cell-based; settings: Prostate, 72 hours
Excerpt: as §1

[16] = system: BT-549; experiment: MTT cytotoxicity, human tumor cell strain; assay type: cell-based; settings: BT-549, Mammary Gland, 72 hours
Excerpt: as §1

[17] = system: CNE-2Z; experiment: MTT cytotoxicity, human tumor cell strain; assay type: cell-based; settings: CNE2Z, Nasopharynx, 72 hours
Excerpt: as §1

[18] = system: U-251; experiment: MTT cytotoxicity, human tumor cell strain; assay type: cell-based; settings: U-251, Malignant Glioma, 72 hours
Excerpt: as §1

[19] = system: 786-O; experiment: MTT cytotoxicity, human tumor cell strain; assay type: cell-based; settings: 786-0, Kidney, 72 hours
Excerpt: as §1

[20] = system: CCL-225; experiment: MTT cytotoxicity, human tumor cell strain; assay type: cell-based; settings: CCL-225, Colon, 72 hours
Excerpt: as §1

[21] = system: MCF-7; experiment: MTT cytotoxicity, human tumor cell strain; assay type: cell-based; settings: MCF7, MCF-7, Mammary Gland, 72 hours
Excerpt: as §1

[22] = system: HCT-116; experiment: MTT cytotoxicity, human tumor cell strain; assay type: cell-based; settings: HCT-116, Colon, 72 hours
Excerpt: as §1

[23] = system: IGROV1; experiment: MTT cytotoxicity, human tumor cell strain; assay type: cell-based; settings: IGROV-1, IGROV1, Ovary, 72 hours
Excerpt: as §1

[24] = system: NCI-H23; experiment: MTT cytotoxicity, human tumor cell strain; assay type: cell-based; settings: NCI-H23, Lung, 72 hours
Excerpt: as §1

[25] = system: SGC-7901; experiment: MTT cytotoxicity, human tumor cell strain; assay type: cell-based; settings: SGC-7901, Stomach, 72 hours
Excerpt: as §1

[26] = system: PC3; experiment: MTT cytotoxicity, human tumor cell strain; assay type: cell-based; settings: PC-3, PC3, Prostate, 72 hours
Excerpt: as §1

[27] = system: Widr; experiment: MTT cytotoxicity, human tumor cell strain; assay type: cell-based; settings: Colon, 72 hours
Excerpt: as §1

[28] = system: HT29; experiment: MTT cytotoxicity, human tumor cell strain; assay type: cell-based; settings: HT-29, HT29, Colon, 72 hours
Excerpt: as §1

[29] = system: Raji; experiment: MTT cytotoxicity, human tumor cell strain; assay type: cell-based; settings: Lymphoma, 72 hours
Excerpt: as §1

[30] = system: Jurkat; experiment: MTT cytotoxicity, human tumor cell strain; assay type: cell-based; settings: Leukemia T Cell, 72 hours
Excerpt: as §1

[31] = system: D145; experiment: MTT cytotoxicity, human tumor cell strain; assay type: cell-based; settings: D145, Prostate, 72 hours
Excerpt: as §1

[32] = system: G-361; experiment: MTT cytotoxicity, human tumor cell strain; assay type: cell-based; settings: G-361, Skin (melanoma), 72 hours
Excerpt: as §1

[33] = system: normal person PBMC; experiment: Toxicity to PBMC cells (MTT, day 7); assay type: cell-based, human; settings: Homo sapiens, 168 h, day 7, MTT
Procedure: (2) Toxicity of compounds zhangnan-5, zhangnan-7 and zhangnan-8 to C8166 and PBMC cells:
C8166 (human T cell line) and PBM (using lymphocyte isolation liquid to separate from normal human peripheral blood, and adhered mononuclear cell separated from PBMC) cells in exponential phase are taken. The cells are resuspended after centrifugal (1000 r•min-1, 10 min), and the concentrations are adjusted to 4×10^5/ml and 2×10^6/ml. The test samples are double diluted on the 96-hole cell culture plate. In total 6 gradients are set, each having 3 duplicate holes. In addition, positive control group and cell control group are set. Upon adding cell suspended liquid, the test samples are placed in incubator of 370C and 5% CO2 for incubation. On the seventh (7th) day, MTT method is used to determine toxicity of the samples to cells.
Inhibition ratio of cell growth (%)=(1−experimental hole OD value/control hole (OD value)×100%

SMILES	EC50 [1]	sensitivity of normal cells to the compounds [1]	EC50 [2]	EC50 [3]	EC50 [4]	EC50 [5]	EC50 [6]	EC50 [7]	EC50 [8]	EC50 [9]	EC50 [10]	EC50 [11]	EC50 [12]	EC50 [13]	EC50 [14]	EC50 [15]	EC50 [16]	EC50 [17]	EC50 [18]	EC50 [19]	further results
CC(C)C1CCC2(C(=O)O)CCC3(C)C(CCC4C5(C)CCC(=O)C(C)(CO)C5CCC43C)C12 (stereo not drawn) [zhangnan-7]	> 30 µM	not sensitive	19.3 µM	18.5 µM	18.3 µM	16.9 µM	18.9 µM	17.5 µM	15.2 µM	15.6 µM	17.5 µM	17.9 µM	18.2 µM	13.1 µM	20.1 µM	15.6 µM	17.4 µM	19.2 µM	17.8 µM	16.8 µM	EC50 [20]: 16.1 µM; EC50 [21]: 16.9 µM; EC50 [22]: 15.1 µM; EC50 [23]: 17.4 µM; EC50 [24]: 12.8 µM; EC50 [25]: 18.5 µM; EC50 [26]: 16.2 µM; EC50 [27]: 14.8 µM; EC50 [28]: 13.9 µM; EC50 [29]: 20.5 µM; EC50 [30]: 21.3 µM; EC50 [31]: 14.8 µM; EC50 [32]: 19.3 µM; IC50 [33]: 25.8 ± 4.9 µM
CC(C)C1CCC2(C(=O)O)CCC3(C)C(CCC4C5(C)CCC(O)C(C)(CO)C5CCC43C)C12 (stereo not drawn) [zhangnan-8, 23-hydroxyl-dihydrobetulinic acid]	> 30 µM	not sensitive	7.9 µM	4.9 µM	8.9 µM	6.9 µM	9.4 µM	7.6 µM	9.6 µM	8.2 µM	7.2 µM	9.5 µM	6.8 µM	6.9 µM	9.2 µM	7.8 µM	7.4 µM	10.2 µM	5.6 µM	8.1 µM	EC50 [20]: 8.6 µM; EC50 [21]: 7.8 µM; EC50 [22]: 7.8 µM; EC50 [23]: 7.2 µM; EC50 [24]: 6.7 µM; EC50 [25]: 8.9 µM; EC50 [26]: 8.9 µM; EC50 [27]: 8.1 µM; EC50 [28]: 8.9 µM; EC50 [29]: 6.9 µM; EC50 [30]: 7.1 µM; EC50 [31]: 8.4 µM; EC50 [32]: 5.3 µM; IC50 [33]: 11.6 ± 3.5 µM
C=C(C)C1CCC2(C(=O)O)CCC3(C)C(CCC4C5(C)CCC(=O)C(C)(CO)C5CCC43C)C12 (stereo not drawn) [zhangnan-5]	> 30 µM	not sensitive	0.55 µM	0.093 µM	1.2 µM	1.5 µM	0.93 µM	1.3 µM	0.15 µM	0.52 µM	0.47 µM	0.78 µM	0.59 µM	0.54 µM	0.98 µM	0.69 µM	0.67 µM	1.3 µM	0.089 µM	3.1 µM	EC50 [20]: 0.23 µM; EC50 [21]: 0.58 µM; EC50 [22]: 0.09 µM; EC50 [23]: 2.1 µM; EC50 [24]: 0.32 µM; EC50 [25]: 0.89 µM; EC50 [26]: 0.91 µM; EC50 [27]: 0.28 µM; EC50 [28]: 0.47 µM; EC50 [29]: 0.098 µM; EC50 [30]: 0.14 µM; EC50 [31]: 0.85 µM; EC50 [32]: 0.087 µM; IC50 [33]: 2.4 ± 0.38 µM
